Data taken from patent US9744186B2 (priority 2012, dated 2017).
Like-named read-outs stand apart in the source and are kept apart here.

Columns and labels:
in vitro = assay: in vitro
Procedure: (§1) Plating Cells: The Huh7 cell line was passaged when it was at about 70% confluency. The cells were counted using a hemocytometer, followed by dilution of the cells to 0.5×10^5 cells per mL in DMEM+10% FBS. The cells were plated at 100 μL (5,000 cells) per well in a clear 96-well plate. The cells were allowed to attach for 24 hours at 37° C.
(§2) Treating the cells: The media (DMEM media without phenol red+2% FBS media) was pre-warmed to 37° C. […] This provided a final DMSO concentration of 0.5%. The 100 mM stock of 3,5-dichlorobenzoic acid was diluted in DMEM without phenol red+2% FBS to a concentration of 0.5 mM. The working 0.5 mM diluted test drugs were serially diluted in DMEM without phenol red+2% FBS+0.5% DMSO in order to maintain a constant concentration of DMSO in each condition. The 96-well plate was removed from the 37° C. incubator, and the media on the plate was replaced with media containing diluted test drug.
(§3) MTS Assay: The reagents from CellTiter 96 kit (Promega Corporation, Madison, Wis.) were thawed at room temperature in the dark for 1 h. The 96-well plate was removed from the 37° C. incubator at 48 h after drug treatment. 20 μL of the combined MTS/PMS reagent to each well of the plate, mixed, and the plate returned to 37° C. The absorbance of each well at 490 nm and 650 nm was determined using the Flexstation 3 microplate reader in endpoint mode every hour for 3 h. The solutions in the wells were mixed prior to each reading. The data were fit to the Emax model: y=(Emax*x)/(TC50+x), where Emax is the maximum inhibition and TC50 is the inhibitory dose 50%. Alternatively, the data can be fit to the Emax sigmoidal model: y=(Emax*x^slope)/(TC50^slope+x^slope), where slope is the Hill Slope.

Huh7 cells = assay: in vitro; conditions: control Huh7 cells; 48 h drug exposure; MTS
Procedure: as §1, §2, §3

[1] = TC50 MTS assay: PK9 cells; assay type: cell-based; conditions: human, 48 h drug treatment
Procedure: (§4) Plating Cells: The Huh7, HEPG2, HEK293, MCF-7, PK9, RPK9, or BxPC3 cells were passaged when they were about 70% confluent. The cells were counted using a hemocytometer, and then diluted cells to 0.5×10^5 cells per mL in DMEM+10% FBS. 100 µL of the cells (5,000 cells) were plated per well in a clear 96-well plate. The cells were allowed to attach for 24 hours at 37° C.
(§5) Treating the cells: Pre-warm the DMEM media without phenol red+2% FBS media to 37° C. […] This will bring the final DMSO concentration to 0.5%. Use these 0.5 mM dilutions to further serially the drugs in DMEM without phenol red+2% FBS+0.5% DMSO. This will keep the concentration of DMSO in each condition identical. Remove the 96-well plate from the 37° C. incubator. Replace the media on the plate with the dilutions of the drugs. Stagger these treatments by 1 h and write the treatment time on each set of plates. Return to 37° C. for 48 h or 96 h as indicated.
(§6) MTS Assay: The reagents from CellTiter 96 kit (Promega Corporation, Madison, Wis.) were thawed at room temperature in the dark for 1 h. The 96-well plate was removed from the 37° C. incubator at 48 h after drug treatment. […] The absorbance of each well at 490 nm and 650 nm was determined using the Flexstation 3 microplate reader in endpoint mode every hour for 3 h. The solutions in the wells were mixed prior to each reading. […]

[2] = TC50 MTS assay: RPK9 cells (deficient in deoxycytidine kinase); assay type: cell-based; conditions: human, 48 h drug treatment, dCK-deficient cells
Procedure: as §4, §5, §6

HCV luciferase replicon [3] = assay: HCV luciferase replicon inhibition in the presence of carboxylesterase inhibitors (benzil or BNPP); assay type: cell-based; conditions: Hepatitis C virus, 48 h
Procedure: The cells were counted using a hemocytometer, and then diluted to 1×10^5 cells/mL in DMEM with 10% FBS and […] G415. 100 μL of the cells (10,000 cells) were plated per well in a white-walled 96-well plate according to the template on the following page.
Treating the cells: Media (DMEM with 2% FBS) was pre-warmed to 37° C. Stock solutions (100 mM) of Benzil and BNPP were diluted in DMEM with 2% FBS to 100 μM. […] The cells were returned to 37° C. for 1 h. […] The 1.0 mM dilution of GCB or GTB in DMEM+2% FBS+100 μM Benzil or BNPP was serially diluted in DMEM with 2% FBS, 0.5% DMSO, 100 μM benzil or BNPP. At the end of the 1 h incubation, the 96-well plate with cells plated as above was removed from the 37° C. incubator, and 50 μL media diluted test drug and 100 μM of benzil or BNPP was added to each well. The plates were gently rocked to mix the media. Also included were conditions with inhibitors alone (DMEM+2% FBS+0.5% DMSO+100 μM benzil or BNPP) and media alone (DMEM+2% FBS+0.5% DMSO) in triplicate. The plates were returned to 37° C. for 48 h.

HCV luciferase replicon [4] = assay: Isobologram analysis of synergism with other anti-viral compounds; assay type: cell-based, hepatitis C virus (HCV)
Procedure: Isobologram analysis was carried to assess the potential synergistic interaction of representative disclosed compounds with representative antiviral compounds. The isobolgram analysis was conducted as previously described by Chou and Talalay (see Chou T. C. and Talalay P. “Analysis of combined drug effects: a new look at a very old problem.” Trends Pharmacol Sci 1983; 4:450-4; and Chou T. C. and Talalay P. “Quantitative analysis of dose-effect relationships: the combined effects of multiple drugs or enzyme inhibitors.” Adv Enzyme Regul 1984; 22:27-55). The definitions of synergism are those described by Chou (see Chou, T. C. (2006) Theoretical basis, experimental design, and computerized simulation of synergism and antagonism in drug combination studies. Pharmacol Rev. 58(3):621-81).
Data for the isobologram analysis are shown in FIGS. 12-15, and shown in each figure are the test compound concentrations and corresponding combination index.

| Structure (SMILES) | CC50 at 48 h (in vitro) [µM] | TC50 (Huh7 cells) [µM] | CC50 at 48 h [1] [µM] | CC50 at 48 h [2] [µM] | IC50 (HCV luciferase replicon [3]; 100 μM BNPP, read-out: IC50 (nM) +BNPP) [nM] | IC50 (HCV luciferase replicon [3]; 100 μM benzil, read-out: IC50 (nM) +Benzil) [nM] | IC50 (HCV luciferase replicon [3]; no carboxylesterase inhibitor, read-out: IC50 (nM) −Benzil −BNPP) [nM] | Interaction Type with BMS-790052 (HCV luciferase replicon [4]; Compound 2 = BMS-790052) | Interaction Type with PSI-7977 (HCV luciferase replicon [4]; Compound 2 = PSI-7977) |
| --- | --- | --- | --- | --- | --- | --- | --- | --- | --- |
| O=C(Nc1ccn([C@@H]2O[C@H](CO)[C@@H](O)C2(F)F)c(=O)n1)c1cc(Cl)cc(Cl)c1 [GCB, N^4-(3,5-Dichlorobenzoyl)gemcitabine] | 110 ± 36 | > 100 | – | – | – | – | – | – | – |
| COc1cc(C(=O)Nc2ccn([C@@H]3O[C@H](CO)[C@@H](O)C3(F)F)c(=O)n2)cc(OC)c1OC [GTB, N^4-(3,4,5-Trimethoxybenzoyl)gemcitabine] | 495 ± 97 | – | 1.69 ± 0.1 | > 500 | 81 | 125 | 49 | moderate synergism | moderate antagonism |
